The target in one experiment is Human thrombin (Homo sapiens (Human), UniProt P00734). Briefly: Thrombin protease activity inhibition assay (chromogenic substrate S-2238). The class given is biochemical. The settings on record: 3 nM thrombin, 125 μM S-2238, 10 min pre-incubation, RT. A digest of the protocol:
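Thrombin at 3 nM final in 0.05 M Tris pH 7.4, 0.015 M NaCl, 0.01% PEG-8000, at room temperature; compounds as ten-point three-fold dilutions.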

Another experiment concerns the target Human KLKB1 (Homo sapiens (Human), UniProt P03952). Kind of experiment: KLKB1 kallikrein activity inhibition assay (chromogenic substrate S-2302). The class given is biochemical. The conditions noted are these: Table B. A digest of the protocol: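 Enzyme at a final 3 nM was assayed in 0.05 M Tris pH 7.4, 0.01 M NaCl and 0.2% PEG-8000 at room temperature, with compounds as ten-point threefold dilutions.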

From US9687479B2, “Multisubstituted aromatic compounds as serine protease inhibitors” (VERSEON CORPORATION, priority 2013, dated 2017) come the findings set out here.

A word on the IC50: it is the concentration that gives 50% inhibition. A lower IC50 goes with higher potency.

Sequence of Human KLKB1 (P03952 391-638 limits assumed): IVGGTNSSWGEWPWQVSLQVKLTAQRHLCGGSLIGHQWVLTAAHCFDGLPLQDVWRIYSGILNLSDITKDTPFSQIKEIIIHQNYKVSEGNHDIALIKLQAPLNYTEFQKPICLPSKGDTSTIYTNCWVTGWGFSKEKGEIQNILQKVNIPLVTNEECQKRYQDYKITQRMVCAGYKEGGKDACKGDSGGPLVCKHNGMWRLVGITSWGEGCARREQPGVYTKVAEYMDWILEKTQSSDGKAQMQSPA
Sequence of Human KLKB1 (P03952 20-390 partner limits assumed): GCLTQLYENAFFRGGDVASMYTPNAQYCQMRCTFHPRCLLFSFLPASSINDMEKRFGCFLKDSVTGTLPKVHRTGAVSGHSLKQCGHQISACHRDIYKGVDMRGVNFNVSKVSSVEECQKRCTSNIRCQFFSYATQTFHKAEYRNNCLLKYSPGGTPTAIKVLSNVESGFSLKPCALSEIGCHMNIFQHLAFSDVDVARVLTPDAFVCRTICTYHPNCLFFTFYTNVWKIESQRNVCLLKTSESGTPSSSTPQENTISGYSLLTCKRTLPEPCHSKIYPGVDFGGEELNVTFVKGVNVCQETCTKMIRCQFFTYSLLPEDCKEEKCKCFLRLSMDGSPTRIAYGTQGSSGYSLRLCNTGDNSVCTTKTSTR

With `COCC(C)(C)C(=O)n1nc(-c2cccn(Cc3ccco3)c2=O)cc1NCc1ccc(Cl)s1` [Cmpd 98, 3-(5-[(5-chlorothiophen-2-yl)methyl]amino-1-(3-methoxy-2,2-dimethylpropanoyl)-1H-pyrazol-3-yl)-1-(furan-2-ylmethyl)-1,2-dihydropyridin-2-one], the IC50 on Human thrombin is less than 100 nM; at Human KLKB1 it was more than 100000 nM.
In the same order, the values of `COCC(C)(C)C(=O)n1nc(-c2cccn(Cc3cccnn3)c2=O)cc1NCc1ccc(Cl)s1` [Cmpd 100, 3-(5-[(5-chlorothiophen-2-yl)methyl]amino-1-(3-methoxy-2,2-dimethylpropanoyl)-1H-pyrazol-3-yl)-1-(pyridazin-3-ylmethyl)-1,2-dihydropyridin-2-one] are less than 100 nM and 1000 to 10000 nM.
In the same order, the values of `COCC(C)(C)C(=O)n1nc(-c2cccn(Cc3ccccn3)c2=O)cc1NCc1ccc(Cl)s1` [Cmpd 101, 3-(5-[(5-chlorothiophen-2-yl)methyl]amino-1-(3-methoxy-2,2-dimethylpropanoyl)-1H-pyrazol-3-yl)-1-(pyridin-2-ylmethyl)-1,2-dihydropyridin-2-one] are less than 100 nM and 10000 to 100000 nM.
The like results for `COCC(C)(C)C(=O)n1nc(-c2cccn(Cc3cccnc3)c2=O)cc1NCc1ccc(Cl)s1` [Cmpd 102, 3-(5-[(5-chlorothiophen-2-yl)methyl]amino-1-(3-methoxy-2,2-dimethylpropanoyl)-1H-pyrazol-3-yl)-1-(pyridin-3-ylmethyl)-1,2-dihydropyridin-2-one] were, in that order, less than 100 nM and 10000 to 100000 nM.
As for `COCC(C)(C)C(=O)n1nc(-c2cccn(Cc3ccncc3)c2=O)cc1NCc1ccc(Cl)s1` [Cmpd 103, 3-(5-[(5-chlorothiophen-2-yl)methyl]amino-1-(3-methoxy-2,2-dimethylpropanoyl)-1H-pyrazol-3-yl)-1-(pyridin-4-ylmethyl)-1,2-dihydropyridin-2-one], the IC50 against Human thrombin is less than 100 nM; at Human KLKB1 it was 10000 to 100000 nM.
On to `COCC(C)(C)C(=O)n1nc(-c2cccn(Cc3ncccn3)c2=O)cc1NCc1ccc(Cl)s1` [Cmpd 104, 3-(5-[(5-chlorothiophen-2-yl)methyl]amino-1-(3-methoxy-2,2-dimethylpropanoyl)-1H-pyrazol-3-yl)-1-(pyrimidin-2-ylmethyl)-1,2-dihydropyridin-2-one], for which the results for the 50% inhibitory concentration (IC50) on Human thrombin and on Human KLKB1 were less than 100 nM and 1000 to 10000 nM, respectively.
On to `COCC(C)(C)C(=O)n1nc(-c2cccn(Cc3cccs3)c2=O)cc1NCc1ccc(Cl)s1` [Cmpd 105, 3-(5-[(5-chlorothiophen-2-yl)methyl]amino-1-(3-methoxy-2,2-dimethylpropanoyl)-1H-pyrazol-3-yl)-1-(thiophen-2-ylmethyl)-1,2-dihydropyridin-2-one], for which the values for the IC50 on Human thrombin and on Human KLKB1 were less than 100 nM and more than 100000 nM, respectively.
The like results for `COCC(C)(C)C(=O)n1nc(-c2cccn(Cc3ccsc3)c2=O)cc1NCc1ccc(Cl)s1` [Cmpd 106, 3-(5-[(5-chlorothiophen-2-yl)methyl]amino-1-(3-methoxy-2,2-dimethylpropanoyl)-1H-pyrazol-3-yl)-1-(thiophen-3-ylmethyl)-1,2-dihydropyridin-2-one] were, in that order, less than 100 nM and more than 100000 nM.
The like results for `COCCn1cccc(-c2cc(NCc3ccc(Cl)s3)n(C(=O)c3cccc4c3OCCO4)n2)c1=O` [Cmpd 109, 3-(5-[(5-chlorothiophen-2-yl)methyl]amino-1-[(2,3-dihydro-1,4-benzodioxin-5-yl)carbonyl]-1H-pyrazol-3-yl)-1-(2-methoxyethyl)-1,2-dihydropyridin-2-one] were, in that order, less than 100 nM and 1000 to 10000 nM.
In the same order, the values of `O=C(c1cccc2c1OCCO2)n1nc(-c2cccn(Cc3ncccn3)c2=O)cc1NCc1ccc(Cl)s1` [Cmpd 116, 3-(5-[(5-chlorothiophen-2-yl)methyl]amino-1-[(2,3-dihydro-1,4-benzodioxin-5-yl)carbonyl]-1H-pyrazol-3-yl)-1-(pyrimidin-2-ylmethyl)-1,2-dihydropyridin-2-one] are less than 100 nM and 1000 to 10000 nM.
Regarding `O=C(c1cccc2c1OCCO2)n1nc(-c2cccn(Cc3cccs3)c2=O)cc1NCc1ccc(Cl)s1` [Cmpd 117, 3-(5-[(5-chlorothiophen-2-yl)methyl]amino-1-[(2,3-dihydro-1,4-benzodioxin-5-yl)carbonyl]-1H-pyrazol-3-yl)-1-(thiophen-2-ylmethyl)-1,2-dihydropyridin-2-one], the results for the IC50 against Human thrombin and at Human KLKB1 were less than 100 nM and more than 100000 nM, respectively.
In the same order, the values of `COCCn1cccc(-c2cc(NCc3ccc(Cl)s3)n(C(=O)c3ccc(OC)cc3OC)n2)c1=O` [Cmpd 122, 3-(5-[(5-chlorothiophen-2-yl)methyl]amino-1-[(2,4-dimethoxyphenyl)carbonyl]-1H-pyrazol-3-yl)-1-(2-methoxyethyl)-1,2-dihydropyridin-2-one] are less than 100 nM and 1000 to 10000 nM.
The like results for `COc1ccc(C(=O)n2nc(-c3cccn(Cc4ccoc4)c3=O)cc2NCc2ccc(Cl)s2)c(OC)c1` [Cmpd 123, 3-(5-[(5-chlorothiophen-2-yl)methyl]amino-1-[(2,4-dimethoxyphenyl)carbonyl]-1H-pyrazol-3-yl)-1-(furan-3-ylmethyl)-1,2-dihydropyridin-2-one] were, in that order, less than 100 nM and 10000 to 100000 nM.
In the same order, the values of `COc1ccc(C(=O)n2nc(-c3cccn(Cc4ccccn4)c3=O)cc2NCc2ccc(Cl)s2)c(OC)c1` [Cmpd 125, 3-(5-[(5-chlorothiophen-2-yl)methyl]amino-1-[(2,4-dimethoxyphenyl)carbonyl]-1H-pyrazol-3-yl)-1-(pyridin-2-ylmethyl)-1,2-dihydropyridin-2-one] are less than 100 nM and 1000 to 10000 nM.
`COc1ccc(C(=O)n2nc(-c3cccn(CCN4CCOCC4)c3=O)cc2NCc2ccc(Cl)s2)c(OC)c1` [Cmpd 131, 3-(5-[(5-chlorothiophen-2-yl)methyl]amino-1-[(2,4-dimethoxyphenyl)carbonyl]-1H-pyrazol-3-yl)-1-[2-(morpholin-4-yl)ethyl]-1,2-dihydropyridin-2-one]: the results for the IC50 at Human thrombin and against Human KLKB1 were less than 100 nM and 100 to 1000 nM, respectively.
In the same order, the values of `COc1ccccc1C(=O)n1nc(-c2cccn(Cc3cccnc3)c2=O)cc1NCc1ccc(Cl)s1` [Cmpd 140, 3-(5-[(5-chlorothiophen-2-yl)methyl]amino-1-[(2-methoxyphenyl)carbonyl]-1H-pyrazol-3-yl)-1-(pyridin-3-ylmethyl)-1,2-dihydropyridin-2-one] are less than 100 nM and 100 to 1000 nM.
In the same order, the values of `CC1(C(=O)n2nc(-c3cccn(Cc4cccs4)c3=O)cc2NCc2ccc(Cl)s2)CCOCC1` [Cmpd 157, 3-(5-[(5-chlorothiophen-2-yl)methyl]amino-1-[(4-methyloxan-4-yl)carbonyl]-1H-pyrazol-3-yl)-1-(thiophen-2-ylmethyl)-1,2-dihydropyridin-2-one] are less than 100 nM and more than 100000 nM.
In the same order, the values of `COCCn1cccc(-c2cc(NCc3ccc(Cl)s3)n(C(=O)c3ccco3)n2)c1=O` [Cmpd 160, 3-(5-[(5-chlorothiophen-2-yl)methyl]amino-1-[(furan-2-yl)carbonyl]-1H-pyrazol-3-yl)-1-(2-methoxyethyl)-1,2-dihydropyridin-2-one] are more than 100000 nM and 100 to 1000 nM.
With `O=C(c1ccoc1)n1nc(-c2cccn(Cc3ccsc3)c2=O)cc1NCc1ccc(Cl)s1` [Cmpd 179, 3-(5-[(5-chlorothiophen-2-yl)methyl]amino-1-[(furan-3-yl)carbonyl]-1H-pyrazol-3-yl)-1-(thiophen-3-ylmethyl)-1,2-dihydropyridin-2-one], the IC50 was less than 100 nM on Human thrombin and 10000 to 100000 nM against Human KLKB1.
Regarding `COCCn1cccc(-c2cc(NCc3ccc(Cl)s3)n(C(=O)c3cccs3)n2)c1=O` [Cmpd 182, 3-(5-[(5-chlorothiophen-2-yl)methyl]amino-1-[(thiophen-2-yl)carbonyl]-1H-pyrazol-3-yl)-1-(2-methoxyethyl)-1,2-dihydropyridin-2-one], the IC50 on Human thrombin is less than 100 nM; against Human KLKB1, 1000 to 10000 nM.
In the same order, the values of `O=C(c1cccs1)n1nc(-c2cccn(Cc3ccoc3)c2=O)cc1NCc1ccc(Cl)s1` [Cmpd 184, 3-(5-[(5-chlorothiophen-2-yl)methyl]amino-1-[(thiophen-2-yl)carbonyl]-1H-pyrazol-3-yl)-1-(furan-3-ylmethyl)-1,2-dihydropyridin-2-one] are less than 100 nM and 10000 to 100000 nM.
The like results for `COCCn1cccc(-c2cc(NCc3ccc(Cl)s3)n(C(=O)c3ccsc3)n2)c1=O` [Cmpd 194, 3-(5-[(5-chlorothiophen-2-yl)methyl]amino-1-[(thiophen-3-yl)carbonyl]-1H-pyrazol-3-yl)-1-(2-methoxyethyl)-1,2-dihydropyridin-2-one] were, in that order, less than 100 nM and 100 to 1000 nM.
The like results for `O=C(c1ccsc1)n1nc(-c2cccn(Cc3ccoc3)c2=O)cc1NCc1ccc(Cl)s1` [Cmpd 196, 3-(5-[(5-chlorothiophen-2-yl)methyl]amino-1-[(thiophen-3-yl)carbonyl]-1H-pyrazol-3-yl)-1-(furan-3-ylmethyl)-1,2-dihydropyridin-2-one] were, in that order, less than 100 nM and 100 to 1000 nM.
For `O=C(c1ccsc1)n1nc(-c2cccn(Cc3ccccn3)c2=O)cc1NCc1ccc(Cl)s1` [Cmpd 198, 3-(5-[(5-chlorothiophen-2-yl)methyl]amino-1-[(thiophen-3-yl)carbonyl]-1H-pyrazol-3-yl)-1-(pyridin-2-ylmethyl)-1,2-dihydropyridin-2-one], the IC50 at Human thrombin is less than 100 nM; against Human KLKB1 it was 100 to 1000 nM.
The like results for `O=C(c1ccsc1)n1nc(-c2cccn(Cc3ncccn3)c2=O)cc1NCc1ccc(Cl)s1` [Cmpd 201, 3-(5-[(5-chlorothiophen-2-yl)methyl]amino-1-[(thiophen-3-yl)carbonyl]-1H-pyrazol-3-yl)-1-(pyrimidin-2-ylmethyl)-1,2-dihydropyridin-2-one] were, in that order, less than 100 nM and 100 to 1000 nM.
